From BindingDB's records for doi:10.1021/jm0603116 (Infinity Pharmaceuticals, 2006)

Target: Endoplasmin (Canis lupus familiaris, UniProt P41148)
Test: Inhibition of BODIPY-AG binding to dog Grp94

Endoplasmin, sequence (P41148 whole entry): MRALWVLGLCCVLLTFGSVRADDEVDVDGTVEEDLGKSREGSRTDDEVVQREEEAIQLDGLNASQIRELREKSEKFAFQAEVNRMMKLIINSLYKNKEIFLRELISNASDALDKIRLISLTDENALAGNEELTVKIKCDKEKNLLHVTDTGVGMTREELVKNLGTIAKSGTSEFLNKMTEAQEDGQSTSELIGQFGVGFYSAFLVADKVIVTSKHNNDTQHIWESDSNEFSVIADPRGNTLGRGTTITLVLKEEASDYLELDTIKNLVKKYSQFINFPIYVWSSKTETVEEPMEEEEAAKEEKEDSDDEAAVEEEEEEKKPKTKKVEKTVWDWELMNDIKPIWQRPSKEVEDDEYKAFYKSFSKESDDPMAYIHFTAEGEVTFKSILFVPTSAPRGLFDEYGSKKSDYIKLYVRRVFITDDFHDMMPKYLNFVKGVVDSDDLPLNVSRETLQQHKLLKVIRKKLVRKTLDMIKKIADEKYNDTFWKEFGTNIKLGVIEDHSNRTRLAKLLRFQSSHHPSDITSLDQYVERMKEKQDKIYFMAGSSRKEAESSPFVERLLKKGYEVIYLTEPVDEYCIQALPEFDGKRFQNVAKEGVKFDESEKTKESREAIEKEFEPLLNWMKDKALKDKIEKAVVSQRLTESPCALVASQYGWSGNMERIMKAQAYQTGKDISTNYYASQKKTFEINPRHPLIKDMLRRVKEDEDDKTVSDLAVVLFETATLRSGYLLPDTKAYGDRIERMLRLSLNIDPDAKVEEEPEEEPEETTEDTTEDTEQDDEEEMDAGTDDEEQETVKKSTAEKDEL

CO[C@H]1C=CC=C(C)C(=O)Nc2cc(O)c(N)c(c2O)C=C(C)C[C@H](OC)[C@H](O)[C@@H](C)/C=C(\C)[C@@H]1OC(N)=O [17-amino-17-demethoxygeldanamycin]
EC50: 48 nM
